Tests used:
[1] = molecular target: NMDA receptor subunits 1A/2D (NR1A+NR2D) (Rattus norvegicus, UniProt P35439+Q62645); assay: Electrophysiological assay at cloned NMDA receptor subunits expressed in Xenopus oocytes, 1A/2D; format: cell-based; details: two-electrode voltage clamp, currents activated by glutamate and glycine
Text: Electrophysiological Assays at NMDA Receptor Subunits […]
cDNA clones encoding the NR1A, NR2A, NR2B, NR2C and NR2D rat NMDA receptor subtypes were provided by Dr. P. H. Seeburg (see, Morivoshi et al., Nature (Lond.) 354:31-37 (1991); Kutsuwada et al., Nature (Lond.) 358:36-41 (1992) Monyer et al., Science (Washington. D.C.) 256:1217-1221 (1992); Ikeda et al., FEBS Lett. 313:34-38 (1992); Ishii et al., J. Biol. Chem. 268:2836-2843 (1993) for details of these clones or their mouse homologs). The clones were transformed into appropriate host bacteria and plasmid preparations were made with conventional DNA purification techniques. A sample of each clone was linearized by restriction enzyme digestion and cRNA was synthesized with T3 RNA polymerase. The cRNA was diluted to 400 ng/μl and stored in 1 μl aliquots at −80° C. until injection.
The Xenopus oocyte Expression System […]
Electrical recordings were made using a conventional two-electrode voltage clamp (Dagan TEV-200) over periods ranging between 3-14 days following injection. […] Inhibitory potency of the novel antagonists was assessed on responses elicited by fixed concentrations of glutamate and glycine, by measuring reductions in current induced by progressively increasing concentrations of antagonists. […]

[2] = molecular target: NMDA receptor subunits 1A/2B (NR1A+NR2B) (Rattus norvegicus, UniProt P35439+Q00960); assay: Electrophysiological assay at cloned NMDA receptor subunits expressed in Xenopus oocytes, 1A/2B; format: cell-based; details: cloned rat NMDA receptor in Xenopus oocytes, two-electrode voltage clamp, currents activated by glutamate and glycine; read-out: Subunits (IC50(μM)) 1A/2B
Procedure: (§1) Electrophysiological Assays at NMDA Receptor Subunits
(§2) The clones were transformed into appropriate host bacteria and plasmid preparations were made with conventional DNA purification techniques. A sample of each clone was linearized by restriction enzyme digestion and cRNA was synthesized with T3 RNA polymerase. The cRNA was diluted to 400 ng/μl and stored in 1 μl aliquots at −80° C. until injection.
(§3) The Xenopus oocyte Expression System
(§4) Follicle-enclosed oocytes were micro-injected with 1:1 mixtures of cRNA:NR1A+NR2A, 2B, 2C or 2D; injecting ˜2,5, or 20 ng of RNA encoding each receptor subunit. NR1A encoding cRNA was injected alone at ˜20 ng. Oocytes were stored in Barth's medium containing (in mM):NaCl, 88; KCl, 1; CaCl2, 0.41; Ca(NO3)2, 0.33; MgSO4, 0.82 NaHCO3, 2.4; HEPES 5, pH 7.4, with 0.1 mg/ml gentamicin sulphate. While oocytes were still surrounded by enveloping ovarian tissues the Barth's medium was supplemented with 0.1% bovine serum.
(§5) Electrical recordings were made using a conventional two-electrode voltage clamp (Dagan TEV-200) over periods ranging between 3-14 days following injection. […] Drugs were applied by bath perfusion. Using oocytes expressing different subunit combinations of NMDA receptor, NMDA currents were activated by co-application of glutamate and glycine. Inhibitory potency of the novel antagonists was assessed on responses elicited by fixed concentrations of glutamate and glycine, by measuring reductions in current induced by progressively increasing concentrations of antagonists.
(§6) Concentration-inhibition curves were fit with equation 1.
(§7) in which Icontrol is the current evoked by agonists alone, pIC50=−log IC50, IC50 is the concentration of antagonist that produces half maximal inhibition, and n is the slope factor. […] For incomplete curves analysis by fitting was unreliable and IC50 values were calculated by simple regression over linear portions of the curves (Origin: Microcal Software).

[3] = system: maximal electroshock-induced seizures; assay: Maximal electroshock-induced seizures (MES); format: in vivo, mice; details: Mus musculus; mice, tonic hindlimb extensor response, 50 mA corneal electrodes; read-out: MES (ED50)
Procedure: Maximal Electroshock-induced Seizures
Seizures were induced by application of current (50 mA, 60 pulses/sec, 0.8 sec pulse width, 1 sec duration, d.c.) through saline-coated corneal electrodes using a Ugo Basile ECT device (Model 7801). […] A tonic seizure was defined as a hindlimb extension in excess of 90 degrees from the plane of the body. Results were treated in a quantal manner.

[4] = molecular target: NMDA receptor subunits 1A/2A (NR1A+NR2A) (Rattus norvegicus, UniProt P35439+Q00959); assay: Electrophysiological assay at cloned NMDA receptor subunits expressed in Xenopus oocytes, 1A/2A; format: cell-based; details: cloned rat NMDA receptor in Xenopus oocytes, two-electrode voltage clamp, currents activated by glutamate and glycine; read-out: Subunits (IC50(μM)) 1A/2A
Procedure: as §1, §2, §3, §4, §5, §6, §7

[5] = molecular target: NMDA receptor subunits 1A/2C (NR1A+NR2C) (Rattus norvegicus, UniProt P35439+Q00961); assay: Electrophysiological assay at cloned NMDA receptor subunits expressed in Xenopus oocytes, 1A/2C; format: cell-based; details: cloned rat NMDA receptor in Xenopus oocytes, two-electrode voltage clamp, currents activated by glutamate and glycine; read-out: Subunits (IC50(μM)) 1A/2C
Procedure: as §1, §2, §3, §4, §5, §6, §7

NMDA receptor subunits 1A/2B (NR1A+NR2B), sequence (Q00960 27-1482, other chains not shown): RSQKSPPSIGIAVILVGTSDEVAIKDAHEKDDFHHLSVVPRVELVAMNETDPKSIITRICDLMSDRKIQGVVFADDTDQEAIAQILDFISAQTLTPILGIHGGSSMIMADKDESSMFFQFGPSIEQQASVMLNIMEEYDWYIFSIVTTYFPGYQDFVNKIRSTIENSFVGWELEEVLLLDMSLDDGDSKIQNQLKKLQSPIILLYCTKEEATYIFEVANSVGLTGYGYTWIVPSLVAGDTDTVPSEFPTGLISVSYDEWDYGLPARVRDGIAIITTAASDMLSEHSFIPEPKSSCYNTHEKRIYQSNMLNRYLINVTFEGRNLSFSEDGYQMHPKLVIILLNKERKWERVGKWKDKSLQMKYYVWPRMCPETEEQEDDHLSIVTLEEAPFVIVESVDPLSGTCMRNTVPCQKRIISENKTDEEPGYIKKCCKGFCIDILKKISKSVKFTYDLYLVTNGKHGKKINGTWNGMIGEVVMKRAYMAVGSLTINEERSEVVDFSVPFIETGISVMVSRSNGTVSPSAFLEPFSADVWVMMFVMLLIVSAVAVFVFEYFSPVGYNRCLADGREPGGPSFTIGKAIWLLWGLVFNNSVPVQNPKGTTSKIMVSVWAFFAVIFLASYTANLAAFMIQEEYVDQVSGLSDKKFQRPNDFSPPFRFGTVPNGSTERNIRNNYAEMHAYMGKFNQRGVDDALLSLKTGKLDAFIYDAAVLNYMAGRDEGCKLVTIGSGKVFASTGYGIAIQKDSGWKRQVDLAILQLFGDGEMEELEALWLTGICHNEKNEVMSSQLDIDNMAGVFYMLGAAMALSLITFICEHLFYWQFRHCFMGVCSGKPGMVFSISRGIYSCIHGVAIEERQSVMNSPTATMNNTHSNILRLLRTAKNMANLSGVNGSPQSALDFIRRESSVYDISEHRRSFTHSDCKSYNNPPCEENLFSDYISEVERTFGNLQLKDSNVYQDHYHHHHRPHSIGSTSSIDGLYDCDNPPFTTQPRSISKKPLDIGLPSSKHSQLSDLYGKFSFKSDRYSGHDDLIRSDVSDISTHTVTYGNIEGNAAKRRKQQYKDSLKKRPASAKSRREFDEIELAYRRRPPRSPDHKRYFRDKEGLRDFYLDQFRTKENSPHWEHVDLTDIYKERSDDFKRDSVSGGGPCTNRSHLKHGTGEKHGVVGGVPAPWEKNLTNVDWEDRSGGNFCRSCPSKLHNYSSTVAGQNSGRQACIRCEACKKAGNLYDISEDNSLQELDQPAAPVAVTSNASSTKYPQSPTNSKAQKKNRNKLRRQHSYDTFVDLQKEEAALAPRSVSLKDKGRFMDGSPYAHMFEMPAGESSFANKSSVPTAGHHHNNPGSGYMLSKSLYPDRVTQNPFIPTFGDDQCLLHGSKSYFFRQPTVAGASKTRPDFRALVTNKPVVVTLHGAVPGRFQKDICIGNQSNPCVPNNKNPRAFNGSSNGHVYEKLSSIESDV
NMDA receptor subunits 1A/2A (NR1A+NR2A), sequence (Q00959 23-1464, other chains not shown): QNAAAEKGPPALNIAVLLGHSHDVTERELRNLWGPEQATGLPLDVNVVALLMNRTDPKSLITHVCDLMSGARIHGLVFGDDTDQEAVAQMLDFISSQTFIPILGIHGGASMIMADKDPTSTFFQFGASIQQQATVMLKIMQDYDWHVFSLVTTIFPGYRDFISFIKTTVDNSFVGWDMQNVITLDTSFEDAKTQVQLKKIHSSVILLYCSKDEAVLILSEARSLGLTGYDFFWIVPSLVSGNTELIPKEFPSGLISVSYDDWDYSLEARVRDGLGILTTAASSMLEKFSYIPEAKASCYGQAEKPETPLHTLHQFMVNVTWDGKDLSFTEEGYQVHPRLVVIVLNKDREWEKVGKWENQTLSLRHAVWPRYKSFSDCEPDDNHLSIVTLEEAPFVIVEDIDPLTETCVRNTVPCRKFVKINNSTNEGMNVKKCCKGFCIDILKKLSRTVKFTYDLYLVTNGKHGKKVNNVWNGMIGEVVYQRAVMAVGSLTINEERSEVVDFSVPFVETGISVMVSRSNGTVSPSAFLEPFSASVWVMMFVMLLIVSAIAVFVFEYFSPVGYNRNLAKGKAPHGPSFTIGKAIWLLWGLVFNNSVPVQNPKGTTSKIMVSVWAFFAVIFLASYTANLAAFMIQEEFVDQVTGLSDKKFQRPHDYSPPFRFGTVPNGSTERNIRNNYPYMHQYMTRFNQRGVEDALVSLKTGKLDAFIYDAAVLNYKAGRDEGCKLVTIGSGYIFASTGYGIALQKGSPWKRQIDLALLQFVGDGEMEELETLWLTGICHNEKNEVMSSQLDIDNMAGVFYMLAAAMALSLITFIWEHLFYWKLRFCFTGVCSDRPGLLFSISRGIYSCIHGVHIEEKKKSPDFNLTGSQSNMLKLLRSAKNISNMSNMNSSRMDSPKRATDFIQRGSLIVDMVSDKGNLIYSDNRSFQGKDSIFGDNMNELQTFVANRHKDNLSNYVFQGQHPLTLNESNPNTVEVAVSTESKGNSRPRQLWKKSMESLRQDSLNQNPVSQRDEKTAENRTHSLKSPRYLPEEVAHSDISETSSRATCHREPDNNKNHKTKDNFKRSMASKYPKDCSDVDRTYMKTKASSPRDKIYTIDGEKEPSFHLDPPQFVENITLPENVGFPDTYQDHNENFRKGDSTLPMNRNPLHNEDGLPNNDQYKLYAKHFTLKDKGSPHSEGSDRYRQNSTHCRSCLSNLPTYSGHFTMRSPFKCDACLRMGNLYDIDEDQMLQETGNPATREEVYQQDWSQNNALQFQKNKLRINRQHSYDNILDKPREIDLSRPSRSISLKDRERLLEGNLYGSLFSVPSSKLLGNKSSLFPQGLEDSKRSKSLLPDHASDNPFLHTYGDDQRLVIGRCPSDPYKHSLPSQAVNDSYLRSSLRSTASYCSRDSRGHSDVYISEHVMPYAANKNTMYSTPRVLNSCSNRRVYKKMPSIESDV
NMDA receptor subunits 1A/2C (NR1A+NR2C), sequence (Q00961 20-1237, other chains not shown): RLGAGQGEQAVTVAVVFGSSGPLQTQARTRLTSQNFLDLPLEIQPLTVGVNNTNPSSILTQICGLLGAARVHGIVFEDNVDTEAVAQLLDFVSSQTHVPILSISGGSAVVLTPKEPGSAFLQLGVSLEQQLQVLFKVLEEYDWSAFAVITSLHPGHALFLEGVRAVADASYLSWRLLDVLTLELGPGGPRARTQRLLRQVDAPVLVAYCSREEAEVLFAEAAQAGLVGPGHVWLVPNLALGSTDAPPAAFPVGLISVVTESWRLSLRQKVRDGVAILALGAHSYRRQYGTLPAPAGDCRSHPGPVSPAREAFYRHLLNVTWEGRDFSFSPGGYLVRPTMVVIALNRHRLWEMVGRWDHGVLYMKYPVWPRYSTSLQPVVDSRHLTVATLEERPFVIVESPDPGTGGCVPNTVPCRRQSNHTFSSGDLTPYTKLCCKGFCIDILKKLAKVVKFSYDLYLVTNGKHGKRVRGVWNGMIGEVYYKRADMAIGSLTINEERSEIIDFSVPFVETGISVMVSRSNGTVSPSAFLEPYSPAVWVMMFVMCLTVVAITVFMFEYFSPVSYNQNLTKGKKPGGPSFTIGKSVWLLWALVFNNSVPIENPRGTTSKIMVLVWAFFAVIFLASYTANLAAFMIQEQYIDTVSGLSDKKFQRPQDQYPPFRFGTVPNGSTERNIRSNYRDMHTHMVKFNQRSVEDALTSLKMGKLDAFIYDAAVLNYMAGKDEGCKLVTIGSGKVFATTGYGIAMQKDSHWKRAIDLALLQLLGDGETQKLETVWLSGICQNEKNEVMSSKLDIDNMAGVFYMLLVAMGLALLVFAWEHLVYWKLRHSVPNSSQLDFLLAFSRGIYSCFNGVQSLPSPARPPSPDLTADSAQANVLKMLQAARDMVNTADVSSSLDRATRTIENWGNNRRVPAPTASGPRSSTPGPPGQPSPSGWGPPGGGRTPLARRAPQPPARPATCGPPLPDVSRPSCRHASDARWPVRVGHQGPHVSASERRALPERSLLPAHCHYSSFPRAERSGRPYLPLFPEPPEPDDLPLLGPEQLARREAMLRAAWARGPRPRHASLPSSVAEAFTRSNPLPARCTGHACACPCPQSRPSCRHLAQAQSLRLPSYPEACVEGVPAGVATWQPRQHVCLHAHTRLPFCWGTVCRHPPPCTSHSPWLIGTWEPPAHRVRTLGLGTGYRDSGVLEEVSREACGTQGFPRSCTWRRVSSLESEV

IC50 [1]: > 300 µM | IC50 [2]: 35 µM | IC50 [4]: 13 µM | IC50 [5]: 110 µM
SMILES: CCOc1ccccc1OCC1CCCCN1CCCOc1ccccc1 (centres unmarked) [Example 17, 2-[(2-Ethoxy)phenyoxy]methyl-1-(3-phenoxy)propylpiperidine]
ED50 [3]: 1 mg/kg
